# Data published in patent US11208400B2, “Substituted 6-(1H-pyrazol-1-yl)pyrimidin-4-amine derivatives and uses thereof” (Bayer Aktiengesellschaft, priority 2016, dated 2021).
# pIC50: −log10 of the molar value.
# Target: T1, human Npt2a (Homo sapiens, UniProt Q06495)
# T1 construct: expressed in transfected cells
# T1 sequence (Q06495 1-639): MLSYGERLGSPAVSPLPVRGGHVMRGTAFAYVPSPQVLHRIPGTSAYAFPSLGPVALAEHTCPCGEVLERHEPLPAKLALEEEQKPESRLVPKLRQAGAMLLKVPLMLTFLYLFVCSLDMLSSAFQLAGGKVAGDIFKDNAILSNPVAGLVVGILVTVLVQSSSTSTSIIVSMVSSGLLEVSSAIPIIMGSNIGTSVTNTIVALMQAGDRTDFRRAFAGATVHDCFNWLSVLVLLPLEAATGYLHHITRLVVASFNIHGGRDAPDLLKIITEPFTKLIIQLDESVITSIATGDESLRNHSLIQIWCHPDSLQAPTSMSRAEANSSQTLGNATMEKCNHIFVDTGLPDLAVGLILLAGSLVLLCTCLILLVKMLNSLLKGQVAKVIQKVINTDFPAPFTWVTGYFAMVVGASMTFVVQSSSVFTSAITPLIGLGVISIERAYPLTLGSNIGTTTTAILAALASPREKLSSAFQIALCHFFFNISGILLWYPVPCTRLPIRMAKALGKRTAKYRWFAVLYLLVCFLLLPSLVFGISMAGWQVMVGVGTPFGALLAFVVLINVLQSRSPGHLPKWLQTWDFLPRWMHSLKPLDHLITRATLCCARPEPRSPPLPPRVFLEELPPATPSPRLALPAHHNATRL
# Assay: Npt2a activity cell based assay, membrane potential dye, CHO T-REx hNpt2a cells
# Conditions: doxycycline-induced, depolarization by sodium phosphate influx, average or median values if tested more than once
# Procedure, shortened: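 Doxycycline-induced (0.5 μg/mL, 24 h) CHO T-REx cells were loaded with membrane potential dye in sodium-free NHE buffer (pH 7.4) and exposed to compound (50 μM–1 nM, 5 min, room temperature).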
row,Compound,pIC50
1,"Cc1nn(-c2cc(Nc3c(C)c(-c4ccc(OC(F)F)cc4)nn3CC3CC3)ncn2)c(C)c1C(F)(F)F [Example 478, N-{1-(cyclopropylmethyl)-3-[4-(difluoromethoxy)phenyl]-4-methyl-1H-pyrazol-5-yl}-6-[3,5-dimethyl-4-(trifluoromethyl)-1H-pyrazol-1-yl]pyrimidin-4-amine]",7.35
2,"CCOC(=O)c1c(C)nn(-c2cc(Nc3c(C)nn(-c4ccc(F)cc4)c3C)ncn2)c1C [Example 453, ethyl 1-(6-{[1-(4-fluorophenyl)-3,5-dimethyl-1H-pyrazol-4-yl]amino}pyrimidin-4-yl)-3,5-dimethyl-1H-pyrazole-4-carboxylate]",7.74
3,"Cc1nn(-c2cc(Nc3c(C)c(-c4ccc(F)cc4)nn3C)ncn2)c(C)c1C(F)(F)F [Example 382, 6-[3,5-dimethyl-4-(trifluoromethyl)-1H-pyrazol-1-yl]-N-[3-(4-fluorophenyl)-1,4-dimethyl-1H-pyrazol-5-yl]pyrimidin-4-amine]",7.46
4,"CCc1c(Nc2cc(-n3nc(C)c(C(=O)N4CCC4)c3C)ncn2)nn(C)c1-c1ccc(F)cc1 [Example 123, azetidin-1-yl[1-(6-{[4-ethyl-5-(4-fluorophenyl)-1-methyl-1H-pyrazol-3-yl]amino}pyrimidin-4-yl)-3,5-dimethyl-1H-pyrazol-4-yl]methanone]",6.40
5,"Cc1c(-c2ccc(F)cc2)nn(CC2CC2)c1Nc1cc(-n2ncc3c2CN(C(=O)OC(C)(C)C)C3)ncn1 [Example 431, tert-butyl 1-(6-{[1-(cyclopropylmethyl)-3-(4-fluorophenyl)-4-methyl-1H-pyrazol-5-yl]amino}pyrimidin-4-yl)-4,6-dihydropyrrolo[3,4-c]pyrazole-5(1H)-carboxylate]",7.16
6,"CCc1c(Nc2cc(-n3nc(C)c(C(=O)N4CCC(C(F)(F)F)C4)c3C)ncn2)nn(C)c1-c1ccc(F)cc1 (stereo not drawn) [Example 272, [1-(6-{[4-ethyl-5-(4-fluorophenyl)-1-methyl-1H-pyrazol-3-yl]amino}pyrimidin-4-yl)-3,5-dimethyl-1H-pyrazol-4-yl][3-(trifluoromethyl)pyrrolidin-1-yl]methanone]",6.47
7,"Cc1nn(-c2cc(Nc3c(C)c(-c4ccc(OC(F)F)cc4)nn3CC3CC3)ncn2)c(C)c1C#N [Example 477, 1-[6-({1-(cyclopropylmethyl)-3-[4-(difluoromethoxy)phenyl]-4-methyl-1H-pyrazol-5-yl}amino)pyrimidin-4-yl]-3,5-dimethyl-1H-pyrazole-4-carbonitrile]",7.01
8,"CCc1c(Nc2cc(-n3nc4c(c3O)CCCC4)ncn2)nn(C)c1-c1ccc(F)cc1 [Example 29, 2-(6-{[4-ethyl-5-(4-fluorophenyl)-1-methyl-1H-pyrazol-3-yl]amino}pyrimidin-4-yl)-4,5,6,7-tetrahydro-2H-indazol-3-ol]",5.85
9,"Cc1nn(-c2cc(Nc3nn(C)c(-c4ccc(F)cc4)c3Cl)ncn2)c(C)c1C(C)(C)O [Example 276, 2-[1-(6-{[4-chloro-5-(4-fluorophenyl)-1-methyl-1H-pyrazol-3-yl]amino}pyrimidin-4-yl)-3,5-dimethyl-1H-pyrazol-4-yl]propan-2-ol]",7.60
10,"CCc1c(Nc2cc(-n3nc(C)c(Cl)c3C)ncn2)nn(CC2CC2)c1-c1ccc(F)cc1 [Example 144, 6-(4-chloro-3,5-dimethyl-1H-pyrazol-1-yl)-N-[1-(cyclopropylmethyl)-4-ethyl-5-(4-fluorophenyl)-1H-pyrazol-3-yl]pyrimidin-4-amine]",6.28
11,"COc1c(Nc2cc(-n3nc(C)c(Cl)c3C)ncn2)nn(C)c1-c1ccc(C#N)cc1 [Example 540, 4-(3-{[6-(4-chloro-3,5-dimethyl-1H-pyrazol-1-yl)pyrimidin-4-yl]amino}-4-methoxy-1-methyl-1H-pyrazol-5-yl)benzonitrile]",7.77
12,"Cc1nn(-c2cc(Nc3nn(C)c(-c4ccc(F)cc4)c3Cl)ncn2)c(C)c1Cl [Example 89, 6-(4-chloro-3,5-dimethyl-1H-pyrazol-1-yl)-N-[4-chloro-5-(4-fluorophenyl)-1-methyl-1H-pyrazol-3-yl]pyrimidin-4-amine]",8.32
13,"COc1ccc(-c2nn(CC3CC3)c(Nc3cc(-n4nc(C)c(C(F)(F)F)c4C)ncn3)c2C)cc1 [Example 486, N-[1-(cyclopropylmethyl)-3-(4-methoxyphenyl)-4-methyl-1H-pyrazol-5-yl]-6-[3,5-dimethyl-4-(trifluoromethyl)-1H-pyrazol-1-yl]pyrimidin-4-amine]",7.23
14,"CCc1c(Nc2cc(-n3nc(C)c(C(C)(C)O)c3C)ncn2)n[nH]c1-c1ccc(F)cc1 [Example 181, 2-[1-(6-{[4-ethyl-5-(4-fluorophenyl)-1H-pyrazol-3-yl]amino}pyrimidin-4-yl)-3,5-dimethyl-1H-pyrazol-4-yl]propan-2-ol]",5.82
15,"CCc1c(-c2ccc(F)cc2)nn(C2CC2)c1Nc1cc(-n2nc(C)c(Cl)c2C)ncn1 [Example 120, 6-(4-chloro-3,5-dimethyl-1H-pyrazol-1-yl)-N-[1-cyclopropyl-4-ethyl-3-(4-fluorophenyl)-1H-pyrazol-5-yl]pyrimidin-4-amine]",5.84
16,"CCc1c(Nc2cc(-n3nc(C)c(CC4(O)CC4)c3C)ncn2)nn(C)c1-c1ccc(F)cc1 [Example 256, 1-{[1-(6-{[4-ethyl-5-(4-fluorophenyl)-1-methyl-1H-pyrazol-3-yl]amino}pyrimidin-4-yl)-3,5-dimethyl-1H-pyrazol-4-yl]methyl}cyclopropanol]",7.46
17,"Cc1nn(-c2cc(Nc3nn(CCC4CC4)c(-c4ccc(C#N)cc4)c3C)ncn2)c(C(F)F)c1Cl [Example 239, 4-[3-({6-[4-chloro-5-(difluoromethyl)-3-methyl-1H-pyrazol-1-yl]pyrimidin-4-yl}amino)-1-(2-cyclopropylethyl)-4-methyl-1H-pyrazol-5-yl]benzonitrile]",6.54
18,"CNc1ccc(-c2nn(CCOC)c(Nc3cc(-n4nc(C)c(Cl)c4C)ncn3)c2C)cc1 [Example 521, 6-(4-chloro-3,5-dimethyl-1H-pyrazol-1-yl)-N-{1-(2-methoxyethyl)-4-methyl-3-[4-(methylamino)phenyl]-1H-pyrazol-5-yl}pyrimidin-4-amine]",8.10
19,"CCOC(=O)c1c(C)nn(-c2cc(Nc3c(C)c(-c4ccc(C#N)cc4)nn3CC3CC3)ncn2)c1C [Example 149, ethyl 1-(6-{[3-(4-cyanophenyl)-1-(cyclopropylmethyl)-4-methyl-1H-pyrazol-5-yl]amino}pyrimidin-4-yl)-3,5-dimethyl-1H-pyrazole-4-carboxylate]",8.15
20,"Cc1cc(C)n(-c2cc(Nc3c(C)c(-c4ccc(F)cc4)nn3CC(O)C3CC3)ncn2)n1 (racemic) [Example 369, (±)-1-cyclopropyl-2-[5-{[6-(3,5-dimethyl-1H-pyrazol-1-yl)pyrimidin-4-yl]amino}-3-(4-fluorophenyl)-4-methyl-1H-pyrazol-1-yl]ethanol]",6.38
21,"CCc1c(Nc2cc(-n3nc(C)c4c3CCC4=O)ncn2)nn(C)c1-c1ccc(F)cc1 [Example 273, 1-(6-{[4-ethyl-5-(4-fluorophenyl)-1-methyl-1H-pyrazol-3-yl]amino}pyrimidin-4-yl)-3-methyl-5,6-dihydrocyclopenta[c]pyrazol-4(1H)-one]",6.92
22,"CCOC(=O)c1c(C)nn(-c2cc(Nc3n[nH]c(-c4ccccc4)c3C)ncn2)c1C [Example 16, ethyl 3,5-dimethyl-1-{6-[(4-methyl-5-phenyl-1H-pyrazol-3-yl)amino]pyrimidin-4-yl}-1H-pyrazole-4-carboxylate]",7.09
23,"Cc1nn(-c2cc(Nc3c(C)c(-c4ccc(C(F)F)nc4)nn3CC3CC3)ncn2)c(C)c1Cl [Example 511, 6-(4-chloro-3,5-dimethyl-1H-pyrazol-1-yl)-N-{1-(cyclopropylmethyl)-3-[6-(difluoromethyl)pyridin-3-yl]-4-methyl-1H-pyrazol-5-yl}pyrimidin-4-amine]",6.92
24,"COc1ccc(-c2nn(CC3CC3)c(Nc3cc(-n4nc(C)cc4C)ncn3)c2C)cc1 [Example 491, N-[1-(cyclopropylmethyl)-3-(4-methoxyphenyl)-4-methyl-1H-pyrazol-5-yl]-6-(3,5-dimethyl-1H-pyrazol-1-yl)pyrimidin-4-amine]",6.66
25,"Cc1nn(-c2cc(Nc3c(C)c(-c4ccc(OC(F)F)cc4)nn3CC3CC3)ncn2)c(C)c1Cl [Example 398, 6-(4-chloro-3,5-dimethyl-1H-pyrazol-1-yl)-N-{1-(cyclopropylmethyl)-3-[4-(difluoromethoxy)phenyl]-4-methyl-1H-pyrazol-5-yl}pyrimidin-4-amine]",7.60
26,"CCc1c(Nc2cc(-n3nc(C)cc3C)ncn2)nn(CCO)c1-c1ccc(F)cc1 [Example 111, 2-[3-{[6-(3,5-dimethyl-1H-pyrazol-1-yl)pyrimidin-4-yl]amino}-4-ethyl-5-(4-fluorophenyl)-1H-pyrazol-1-yl]ethanol]",6.44
27,"Cc1cc(C)n(-c2cc(Nc3c(C)c(-c4ccc(F)cn4)nn3C)ncn2)n1 [Example 467, 6-(3,5-dimethyl-1H-pyrazol-1-yl)-N-[3-(5-fluoropyridin-2-yl)-1,4-dimethyl-1H-pyrazol-5-yl]pyrimidin-4-amine]",7.16
